Experiment [1] deals with T1, Ephrin type-B receptor 4 (Homo sapiens, UniProt P54760).
T1 sequence (P54760 whole entry): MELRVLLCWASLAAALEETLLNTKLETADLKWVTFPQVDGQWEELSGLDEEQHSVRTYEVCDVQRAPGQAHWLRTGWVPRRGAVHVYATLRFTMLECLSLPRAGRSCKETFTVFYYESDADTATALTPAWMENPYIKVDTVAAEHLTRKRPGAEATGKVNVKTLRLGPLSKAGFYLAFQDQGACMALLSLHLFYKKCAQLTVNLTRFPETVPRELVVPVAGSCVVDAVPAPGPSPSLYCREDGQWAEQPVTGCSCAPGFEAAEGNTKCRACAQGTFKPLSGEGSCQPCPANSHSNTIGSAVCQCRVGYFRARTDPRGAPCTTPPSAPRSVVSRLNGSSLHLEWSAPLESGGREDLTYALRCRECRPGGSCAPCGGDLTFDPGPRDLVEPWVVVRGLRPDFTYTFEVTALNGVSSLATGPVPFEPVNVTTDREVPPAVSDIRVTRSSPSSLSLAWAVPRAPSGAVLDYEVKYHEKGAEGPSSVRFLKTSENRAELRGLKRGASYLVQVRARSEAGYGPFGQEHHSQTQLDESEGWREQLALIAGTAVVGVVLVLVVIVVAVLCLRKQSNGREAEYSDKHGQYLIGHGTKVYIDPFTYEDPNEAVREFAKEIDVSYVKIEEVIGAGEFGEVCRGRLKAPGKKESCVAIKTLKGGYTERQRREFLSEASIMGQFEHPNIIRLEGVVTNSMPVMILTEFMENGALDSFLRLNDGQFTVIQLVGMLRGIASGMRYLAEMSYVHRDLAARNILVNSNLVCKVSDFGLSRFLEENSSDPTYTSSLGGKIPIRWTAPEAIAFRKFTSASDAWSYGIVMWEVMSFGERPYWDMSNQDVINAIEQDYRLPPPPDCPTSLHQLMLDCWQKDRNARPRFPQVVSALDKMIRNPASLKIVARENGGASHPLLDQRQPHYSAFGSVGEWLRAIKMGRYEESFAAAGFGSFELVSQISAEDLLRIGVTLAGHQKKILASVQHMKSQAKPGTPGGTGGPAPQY

For experiment [2], the target named is Cyclin-dependent kinase 2 (Homo sapiens, UniProt P24941). Briefly: Inhibition of CDK2 by FRET assay.
In experiment [3] the target is Cyclin-dependent kinase 1/cyclin B1 (Homo sapiens, UniProt P06493). Briefly: Inhibition of CDK1/Cyclin B. Format: protein-complex assay.
Sequence of Cyclin-dependent kinase 1/cyclin B1 (P06493 whole entry): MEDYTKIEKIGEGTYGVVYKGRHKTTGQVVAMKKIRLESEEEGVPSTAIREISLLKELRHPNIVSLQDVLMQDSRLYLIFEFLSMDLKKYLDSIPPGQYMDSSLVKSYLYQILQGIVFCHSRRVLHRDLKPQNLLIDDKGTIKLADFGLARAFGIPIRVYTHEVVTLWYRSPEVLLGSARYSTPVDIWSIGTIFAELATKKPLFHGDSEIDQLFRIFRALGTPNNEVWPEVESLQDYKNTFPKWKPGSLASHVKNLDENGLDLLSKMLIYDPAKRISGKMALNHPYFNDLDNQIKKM
Sequence of Cyclin-dependent kinase 1/cyclin B1 (P14635 whole entry, further chain): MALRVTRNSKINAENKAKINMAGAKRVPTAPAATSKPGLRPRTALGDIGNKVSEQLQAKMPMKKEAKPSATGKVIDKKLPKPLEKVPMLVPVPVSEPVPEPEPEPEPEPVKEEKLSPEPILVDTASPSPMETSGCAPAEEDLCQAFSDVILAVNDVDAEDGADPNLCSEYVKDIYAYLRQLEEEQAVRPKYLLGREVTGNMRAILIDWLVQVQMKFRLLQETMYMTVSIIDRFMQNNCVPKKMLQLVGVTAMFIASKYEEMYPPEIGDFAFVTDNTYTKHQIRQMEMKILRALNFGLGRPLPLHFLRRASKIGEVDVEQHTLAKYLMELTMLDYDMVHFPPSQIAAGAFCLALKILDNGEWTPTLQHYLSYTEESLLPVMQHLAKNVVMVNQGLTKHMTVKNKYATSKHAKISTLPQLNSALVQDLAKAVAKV
A short description of experiment [4]: Inhibition of CDK2/Cyclin A.

`Cn1c(=O)[nH]c(=O)c2c1nc1n(CCCCO)c(-c3ccccc3)cn21` registered an IC50 in experiment [1] of 1.6 µM. As for `NC(=O)c1c(NC(=O)CN2C(=O)CCC2=O)sc2c1CCC2`, the midpoint of inhibition in experiment [2], the IC50, lay at 7.5 µM.

As for `CCOC(C)(COc1nc(N)nc2[nH]cnc12)OCC`, the IC50 is 36 µM in experiment [3] and 33 µM in experiment [4].

As usually defined, the IC50 is the concentration that gives 50% inhibition.
